From US7375083B2, “Pharmaceutical compositions for prevention of overdose or abuse” (Shire LLC, priority 2003, dated 2008)

How the values were obtained:
Male Sprague-Dawley rats [1] = assay: Horizontal locomotor activity after oral administration; assay type: in vivo; details: oral gavage, 6 mg/kg amphetamine equivalent
Male Sprague-Dawley rats [2] = assay: Locomotor activity after intranasal administration with and without CMC; assay type: in vivo
Male Sprague-Dawley rats [3] = assay: Locomotor activity after intravenous administration; assay type: in vivo
[4] = Oral pharmacokinetics in rats, plasma d-amphetamine by ELISA; details: rat; oral; 60 mg/kg
Anesthetized Dog = assay: Cardiovascular effects after intravenous bolus injection in anesthetized dogs
[5] = 1.0 mg/kg amphetamine equivalent, 1 h
[6] = 1.0 mg/kg, activity above baseline relative to d-amphetamine
[7] = 1.0 mg/kg amphetamine equivalent, 3 h

For C[C@H](N)Cc1ccccc1 [d-amphetamine, reference compound], the “Peak of activity (Counts per 0.2 h)” value (Male Sprague-Dawley rats [1]; 5 Hours) was 291 Counts per 0.2 h, the “Time of Last Count Above 200 per 0.2 h” value (Male Sprague-Dawley rats [1]; 5 Hours) was 2.6 h and the “Total Activity Counts” value (Male Sprague-Dawley rats [1]; 5 Hours) was 515 Counts. For the same compound, the “Total Activity Counts Above Baseline” value (Male Sprague-Dawley rats [1]; 5 Hours) was 0 Counts, the “Peak of activity (Counts per 0.2 h)” value (Male Sprague-Dawley rats [1]; 12 Hours) was 223 Counts per 0.2 h and the “Time of Last Count Above 100 per 0.2 h” value (Male Sprague-Dawley rats [1]; 12 Hours) was 6.4 h. For the same compound, the “Total Activity Counts” value (Male Sprague-Dawley rats [1]; 12 Hours) was 6622 Counts, the “Total Activity Counts Above Baseline” value (Male Sprague-Dawley rats [1]; 12 Hours) was 5686 Counts and the “Total Activity Counts (1 h)” value (Male Sprague-Dawley rats [2]; [5]) was 858 Counts. For the same compound, the “Total Activity Counts Above Baseline” value (Male Sprague-Dawley rats [2]; [5]) was 686 Counts, the Percent d-amphetamine (Male Sprague-Dawley rats [2]; [6]) was 100% and the “Total Activity Counts 3 h” value (Male Sprague-Dawley rats [3]; [7]) was 1659 Counts. For the same compound, the “Total Activity Counts Above Baseline” value (Male Sprague-Dawley rats [3]; [7]) was 1355 Counts, the Percent d-amphetamine (Male Sprague-Dawley rats [3]; [6]) was 100% and the “Animals that died or were sacrificed due to acute symptoms of toxicity” value [4] was 8 of 12. The “DAP % Change from respective Time 0” value (Anesthetized Dog; 0.202 mg/kg, TIME 0) was 0%, the “LVP % Change from respective Time 0” value (Anesthetized Dog; 0.202 mg/kg, TIME 0) was 0% and the “MAP % Change from respective Time 0” value (Anesthetized Dog; 0.202 mg/kg, TIME 0) was 0%. For the same compound, the “MAP - mean arterial pressure” value (Anesthetized Dog; 0.202 mg/kg, TIME 0) was 84 mmHg, the “SAP % Change from respective Time 0” value (Anesthetized Dog; 0.202 mg/kg, TIME 0) was 0% and the “SAP - systolic arterial pressure” value (Anesthetized Dog; 0.202 mg/kg, TIME 0) was 111 mmHg. For the same compound, the “DAP % Change from respective Time 0” value (Anesthetized Dog; 0.202 mg/kg, TIME 5) was 117%, the “LVP % Change from respective Time 0” value (Anesthetized Dog; 0.202 mg/kg, TIME 5) was 107% and the “MAP % Change from respective Time 0” value (Anesthetized Dog; 0.202 mg/kg, TIME 5) was 109%. For the same compound, the “MAP - mean arterial pressure” value (Anesthetized Dog; 0.202 mg/kg, TIME 5) was 176 mmHg, the “SAP % Change from respective Time 0” value (Anesthetized Dog; 0.202 mg/kg, TIME 5) was 97% and the “SAP - systolic arterial pressure” value (Anesthetized Dog; 0.202 mg/kg, TIME 5) was 218 mmHg. For the same compound, the “DAP % Change from respective Time 0” value (Anesthetized Dog; 0.202 mg/kg, TIME 15) was 45%, the “LVP % Change from respective Time 0” value (Anesthetized Dog; 0.202 mg/kg, TIME 15) was 52% and the “MAP % Change from respective Time 0” value (Anesthetized Dog; 0.202 mg/kg, TIME 15) was 49%. The “MAP - mean arterial pressure” value (Anesthetized Dog; 0.202 mg/kg, TIME 15) was 125 mmHg, the “SAP % Change from respective Time 0” value (Anesthetized Dog; 0.202 mg/kg, TIME 15) was 52% and the “SAP - systolic arterial pressure” value (Anesthetized Dog; 0.202 mg/kg, TIME 15) was 168 mmHg. For the same compound, the “DAP % Change from respective Time 0” value (Anesthetized Dog; 0.202 mg/kg, TIME 25) was 30%, the “LVP % Change from respective Time 0” value (Anesthetized Dog; 0.202 mg/kg, TIME 25) was 37% and the “MAP % Change from respective Time 0” value (Anesthetized Dog; 0.202 mg/kg, TIME 25) was 31%. The “MAP - mean arterial pressure” value (Anesthetized Dog; 0.202 mg/kg, TIME 25) was 110 mmHg, the “SAP % Change from respective Time 0” value (Anesthetized Dog; 0.202 mg/kg, TIME 25) was 34% and the “SAP - systolic arterial pressure” value (Anesthetized Dog; 0.202 mg/kg, TIME 25) was 148 mmHg. The “DAP % Change from respective Time 0” value (Anesthetized Dog; 0.202 mg/kg, TIME 30) was 20%, the “LVP % Change from respective Time 0” value (Anesthetized Dog; 0.202 mg/kg, TIME 30) was 30% and the “MAP % Change from respective Time 0” value (Anesthetized Dog; 0.202 mg/kg, TIME 30) was 23%. The “MAP - mean arterial pressure” value (Anesthetized Dog; 0.202 mg/kg, TIME 30) was 103 mmHg, the “SAP % Change from respective Time 0” value (Anesthetized Dog; 0.202 mg/kg, TIME 30) was 26% and the “SAP - systolic arterial pressure” value (Anesthetized Dog; 0.202 mg/kg, TIME 30) was 140 mmHg. The “DAP % Change from respective Time 0” value (Anesthetized Dog; 0.404 mg/kg, TIME 0) was 0%, the “LVP % Change from respective Time 0” value (Anesthetized Dog; 0.404 mg/kg, TIME 0) was 0% and the “MAP % Change from respective Time 0” value (Anesthetized Dog; 0.404 mg/kg, TIME 0) was 0%. The “MAP - mean arterial pressure” value (Anesthetized Dog; 0.404 mg/kg, TIME 0) was 101 mmHg, the “SAP % Change from respective Time 0” value (Anesthetized Dog; 0.404 mg/kg, TIME 0) was 0% and the “SAP - systolic arterial pressure” value (Anesthetized Dog; 0.404 mg/kg, TIME 0) was 139 mmHg. The “DAP % Change from respective Time 0” value (Anesthetized Dog; 0.404 mg/kg, TIME 5) was 88%, the “LVP % Change from respective Time 0” value (Anesthetized Dog; 0.404 mg/kg, TIME 5) was 79% and the “MAP % Change from respective Time 0” value (Anesthetized Dog; 0.404 mg/kg, TIME 5) was 85%. For the same compound, the “MAP - mean arterial pressure” value (Anesthetized Dog; 0.404 mg/kg, TIME 5) was 187 mmHg, the “SAP % Change from respective Time 0” value (Anesthetized Dog; 0.404 mg/kg, TIME 5) was 73% and the “SAP - systolic arterial pressure” value (Anesthetized Dog; 0.404 mg/kg, TIME 5) was 240 mmHg. For the same compound, the “DAP % Change from respective Time 0” value (Anesthetized Dog; 0.404 mg/kg, TIME 15) was 44%, the “LVP % Change from respective Time 0” value (Anesthetized Dog; 0.404 mg/kg, TIME 15) was 43% and the “MAP % Change from respective Time 0” value (Anesthetized Dog; 0.404 mg/kg, TIME 15) was 43%. The “MAP - mean arterial pressure” value (Anesthetized Dog; 0.404 mg/kg, TIME 15) was 145 mmHg, the “SAP % Change from respective Time 0” value (Anesthetized Dog; 0.404 mg/kg, TIME 15) was 39% and the “SAP - systolic arterial pressure” value (Anesthetized Dog; 0.404 mg/kg, TIME 15) was 193 mmHg. For the same compound, the “DAP % Change from respective Time 0” value (Anesthetized Dog; 0.404 mg/kg, TIME 25) was 17%, the “LVP % Change from respective Time 0” value (Anesthetized Dog; 0.404 mg/kg, TIME 25) was 26% and the “MAP % Change from respective Time 0” value (Anesthetized Dog; 0.404 mg/kg, TIME 25) was 20%. For the same compound, the “MAP - mean arterial pressure” value (Anesthetized Dog; 0.404 mg/kg, TIME 25) was 122 mmHg, the “SAP % Change from respective Time 0” value (Anesthetized Dog; 0.404 mg/kg, TIME 25) was 19% and the “SAP - systolic arterial pressure” value (Anesthetized Dog; 0.404 mg/kg, TIME 25) was 166 mmHg. The “DAP % Change from respective Time 0” value (Anesthetized Dog; 0.404 mg/kg, TIME 30) was 11%, the “LVP % Change from respective Time 0” value (Anesthetized Dog; 0.404 mg/kg, TIME 30) was 22% and the “MAP % Change from respective Time 0” value (Anesthetized Dog; 0.404 mg/kg, TIME 30) was 16%. The “MAP - mean arterial pressure” value (Anesthetized Dog; 0.404 mg/kg, TIME 30) was 117 mmHg, the “SAP % Change from respective Time 0” value (Anesthetized Dog; 0.404 mg/kg, TIME 30) was 16% and the “SAP - systolic arterial pressure” value (Anesthetized Dog; 0.404 mg/kg, TIME 30) was 160 mmHg. For the same compound, the “DAP % Change from respective Time 0” value (Anesthetized Dog; 2.02 mg/kg, TIME 0) was 0%, the “LVP % Change from respective Time 0” value (Anesthetized Dog; 2.02 mg/kg, TIME 0) was 0% and the “MAP % Change from respective Time 0” value (Anesthetized Dog; 2.02 mg/kg, TIME 0) was 0%. For the same compound, the “MAP - mean arterial pressure” value (Anesthetized Dog; 2.02 mg/kg, TIME 0) was 115 mmHg, the “SAP % Change from respective Time 0” value (Anesthetized Dog; 2.02 mg/kg, TIME 0) was 0% and the “SAP - systolic arterial pressure” value (Anesthetized Dog; 2.02 mg/kg, TIME 0) was 158 mmHg. The “DAP % Change from respective Time 0” value (Anesthetized Dog; 2.02 mg/kg, TIME 5) was 48%, the “LVP % Change from respective Time 0” value (Anesthetized Dog; 2.02 mg/kg, TIME 5) was 40% and the “MAP % Change from respective Time 0” value (Anesthetized Dog; 2.02 mg/kg, TIME 5) was 47%. For the same compound, the “MAP - mean arterial pressure” value (Anesthetized Dog; 2.02 mg/kg, TIME 5) was 169 mmHg, the “SAP % Change from respective Time 0” value (Anesthetized Dog; 2.02 mg/kg, TIME 5) was 44% and the “SAP - systolic arterial pressure” value (Anesthetized Dog; 2.02 mg/kg, TIME 5) was 228 mmHg. The “DAP % Change from respective Time 0” value (Anesthetized Dog; 2.02 mg/kg, TIME 15) was 23%, the “LVP % Change from respective Time 0” value (Anesthetized Dog; 2.02 mg/kg, TIME 15) was 24% and the “MAP % Change from respective Time 0” value (Anesthetized Dog; 2.02 mg/kg, TIME 15) was 23%. The “MAP - mean arterial pressure” value (Anesthetized Dog; 2.02 mg/kg, TIME 15) was 142 mmHg, the “SAP % Change from respective Time 0” value (Anesthetized Dog; 2.02 mg/kg, TIME 15) was 24% and the “SAP - systolic arterial pressure” value (Anesthetized Dog; 2.02 mg/kg, TIME 15) was 196 mmHg. The “DAP % Change from respective Time 0” value (Anesthetized Dog; 2.02 mg/kg, TIME 25) was 17%, the “LVP % Change from respective Time 0” value (Anesthetized Dog; 2.02 mg/kg, TIME 25) was 19% and the “MAP % Change from respective Time 0” value (Anesthetized Dog; 2.02 mg/kg, TIME 25) was 17%. The “MAP - mean arterial pressure” value (Anesthetized Dog; 2.02 mg/kg, TIME 25) was 135 mmHg, the “SAP % Change from respective Time 0” value (Anesthetized Dog; 2.02 mg/kg, TIME 25) was 20% and the “SAP - systolic arterial pressure” value (Anesthetized Dog; 2.02 mg/kg, TIME 25) was 189 mmHg. The “DAP % Change from respective Time 0” value (Anesthetized Dog; 2.02 mg/kg, TIME 30) was 13%, the “LVP % Change from respective Time 0” value (Anesthetized Dog; 2.02 mg/kg, TIME 30) was 16% and the “MAP % Change from respective Time 0” value (Anesthetized Dog; 2.02 mg/kg, TIME 30) was 12%. For the same compound, the “MAP - mean arterial pressure” value (Anesthetized Dog; 2.02 mg/kg, TIME 30) was 129 mmHg, the “SAP % Change from respective Time 0” value (Anesthetized Dog; 2.02 mg/kg, TIME 30) was 16% and the “SAP - systolic arterial pressure” value (Anesthetized Dog; 2.02 mg/kg, TIME 30) was 183 mmHg. The “Effect on mean blood pressure after the first (lowest) dose” value (Anesthetized Dog; dog, IV bolus, 0.202 mg/kg d-amphetamine, equimolar to 0.5 mg/kg L-lysine-d-amphetamine) was “acute doubling of the mean BP”.
